Source: patent publication US8324264B1, “Inhibitors of bacterial biofilms and related methods” (Sequoia Sciences, Inc., priority 2011, dated 2012)
≈ marks a conversion by molar mass, not a printed value.

Legend:
P. aeruginosa biofilms = test: Biofilm growth assay (spreading biofilm on semi-solid agar), P. aeruginosa; format: cell-based; conditions: biofilm growth assay, overnight 37° C., vs negative controls, Tables 1-5; for IC85: Pseudomonas aeruginosa, read-out: P. aeruginosa: concentration that reduces the area of the spreading biofilm by greater than or equal to 85%
How it was run: (§1)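 Compound added to semi-solid agar: M8 with 0.2% glucose, 100 μM CaCl2, 1 mM MgSO4, 0.5% Casamino acids (P. aeruginosa) or LB with 0.6% agar, 0.5% glucose (E. coli). Center-inoculated with 5 μL overnight culture, incubated overnight at 37 °C; value is concentration (μg/ml) reducing spreading area ≥85% versus negative controls.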

E. coli biofilms = test: Biofilm growth assay (spreading biofilm on semi-solid agar), E. coli; format: cell-based; conditions: biofilm growth assay, overnight 37° C., vs negative controls, Tables 1-5; for IC85: Escherichia coli, read-out: E. coli: concentration that reduces the area of the spreading biofilm by greater than or equal to 85%
How it was run: as §1

| SMILES | P. aeruginosa: concentration that reduces the area of the spreading biofilm by greater than or equal to 85% (P. aeruginosa biofilms) | E. coli: concentration that reduces the area of the spreading biofilm by greater than or equal to 85% (E. coli biofilms) | IC85 (P. aeruginosa biofilms) | IC85 (E. coli biofilms) |
| --- | --- | --- | --- | --- |
| CC1(C)CC[C@]2(C(=O)O)CC[C@]3(C)C(=C(c4cccc5cnccc45)CC4[C@@]5(C)Cc6c(n[nH]c6N)C(C)(C)C5CC[C@]43C)C2C1 (stereo partly drawn) [Example 46, (4aS,6aS,6bR,13aR)-12-Amino-15-(isoquinolin-5-yl)-2,2,6a,6b,9,9,13a-heptamethyl-2,3,4,4a,5,6,6a,6b,7,8,8a,9,11,13,13a,13b,14,15b-octadecahydro-1H-chryseno[1,2-f]indazole-4-a-carboxylic acid] | 0.5 µg/mL | 1 µg/mL | – | – |
| CC1(C)CC[C@]2(C(=O)O)CC[C@]3(C)C(=C(c4cccc5c4CCNC5)CC4[C@@]5(C)Cc6c(n[nH]c6N)C(C)(C)C5CC[C@]43C)C2C1 (stereo partly drawn) [Example 47, (4aS,6aS,6bR,13aR)-12-Amino-2,2,6a,6b,9,9,13a-heptamethyl-15-(1,2,3,4-tetrahydroisoquinolin-5-yl)-2,3,4,4a,5,6,6a,6b,7,8,8a,9,11,13,13a,13b,14,15b-octadecahydro-1H-chryseno[1,2-f]indazole-4-a-carboxylic acid] | 0.5 µg/mL | 1 µg/mL | – | – |
| CC1(C)CC[C@]2(C(=O)O)CC[C@]3(C)C(=C(c4cccc5[nH]ccc45)CC4[C@@]5(C)Cc6c(n[nH]c6N)C(C)(C)C5CC[C@]43C)C2C1 (stereo partly drawn) [Example 48, (4aS,6aS,6bR,13aR)-12-Amino-15-(1H-indol-4-yl)-2,2,6a,6b,9,9,13a-heptamethyl-2,3,4,4a,5,6,6a,6b,7,8,8a,9,11,13,13a,13b,14,15b-octadecahydro-1H-chryseno[1,2-f]indazole-4-a-carboxylic acid] | 0.5 µg/mL | 1 µg/mL | – | – |
| CC1(C)CC[C@]2(C(=O)O)CC[C@]3(C)C(=C(c4ccc5[nH]ccc5c4)CC4[C@@]5(C)Cc6c(n[nH]c6N)C(C)(C)C5CC[C@]43C)C2C1 (stereo partly drawn) [Example 49, (4aS,6aS,6bR,13aR)-12-Amino-15-(1H-indol-5-yl)-2,2,6a,6b,9,9,13a-heptamethyl-2,3,4,4a,5,6,6a,6b,7,8,8a,9,11,13,13a,13b,14,15b-octadecahydro-1H-chryseno[1,2-f]indazole-4-a-carboxylic acid] | 0.5 µg/mL | >1 µg/mL | – | – |
| CC1(C)CC[C@]2(C(=O)O)CC[C@]3(C)C(=C(c4ccc(N5CCNCC5)cc4)CC4[C@@]5(C)Cc6c(n[nH]c6N)C(C)(C)C5CC[C@]43C)C2C1 (stereo partly drawn) [Example 50, (4aS,6aS,6bR,13aR)-12-Amino-2,2,6a,6b,9,9,13a-heptamethyl-15-(4-(piperazin-1-yl)phenyl)-2,3,4,4a,5,6,6a,6b,7,8,8a,9,11,13,13a,13b,14,15b-octadecahydro-1H-chryseno[1,2-f]indazole-4-a-carboxylic acid] | 2 µg/mL | 1 µg/mL | – | – |
| CC1(C)CC[C@]2(C(=O)O)CC[C@]3(C)C(=C(c4ccc(N5CCOCC5)cc4)CC4[C@@]5(C)Cc6c(n[nH]c6N)C(C)(C)C5CC[C@]43C)C2C1 (stereo partly drawn) [Example 51, (4aS,6aS,6bR,13aR)-12-Amino-2,2,6a,6b,9,9,13a-heptamethyl-15-(4-morpholinophenyl)-2,3,4,4a,5,6,6a,6b,7,8,8a,9,11,13,13a,13b,14,15b-octadecahydro-1H-chryseno[1,2-f]indazole-4-a-carboxylic acid] | 0.5 µg/mL | 2 µg/mL | – | – |
| CC1(C)CC[C@]2(C(=O)O)CC[C@]3(C)C(=C(c4ccc(CN5CCOCC5)cc4)CC4[C@@]5(C)Cc6c(n[nH]c6N)C(C)(C)C5CC[C@]43C)C2C1 (stereo partly drawn) [Example 52, (4aS,6aS,6bR,13aR)-12-Amino-2,2,6a,6b,9,9,13a-heptamethyl-15-(4-(morpholinomethyl)phenyl)-2,3,4,4a,5,6,6a,6b,7,8,8a,9,11,13,13a,13b,14,15b-octadecahydro-1H-chryseno[1,2-f]indazole-4-a-carboxylic acid] | 1 µg/mL | 2 µg/mL | – | – |
| CN1CCN(c2ccc(C3=C4C5CC(C)(C)CC[C@]5(C(=O)O)CC[C@@]4(C)[C@]4(C)CCC5C(C)(C)c6n[nH]c(N)c6C[C@]5(C)C4C3)cc2)CC1 (stereo partly drawn) [Example 53, (4aS,6aS,6bR,13aR)-12-Amino-2,2,6a,6b,9,9,13a-heptamethyl-15-(4-(4-methylpiperazin-1-yl)phenyl)-2,3,4,4a,5,6,6a,6b,7,8,8a,9,11,13,13a,13b,14,15b-octadecahydro-1H-chryseno[1,2-f]indazole-4-a-carboxylic acid] | 0.5 µg/mL | 2 µg/mL | – | – |
| CC1(C)CC[C@]2(C(=O)O)CC[C@]3(C)C(=C(c4ccc(N5CCOCC5)nc4)CC4[C@@]5(C)Cc6c(n[nH]c6N)C(C)(C)[C@@H]5CC[C@]43C)[C@@H]2C1 (stereo partly drawn) [Example 54, (4aS,6aS,6bR,8aR,13aR,15bS)-12-Amino-2,2,6a,6b,9,9,13a-heptamethyl-15-(6-morpholinopyridin-3-yl)-2,3,4,4a,5,6,6a,6b,7,8,8a,9,11,13,13a,13b,14,15b-octadecahydro-1H-chryseno[1,2-f]indazole-4-a-carboxylic acid] | 1 µg/mL | 2 µg/mL | – | – |
| CC1(C)CC[C@]2(C(=O)O)CC[C@]3(C)C(=C(c4ccc(N5CCNCC5)nc4)CC4[C@@]5(C)Cc6c(n[nH]c6N)C(C)(C)C5CC[C@]43C)C2C1 (stereo partly drawn) [Example 55, (4aS,6aS,6bR,13aR)-12-Amino-2,2,6a,6b,9,9,13a-heptamethyl-15-(6-(piperazin-1-yl)pyridin-3-yl)-2,3,4,4a,5,6,6a,6b,7,8,8a,9,11,13,13a,13b,14,15b-octadecahydro-1H-chryseno[1,2-f]indazole-4-a-carboxylic acid] | >1 µg/mL | 2 µg/mL | – | – |
| CN1CCN(c2ccc(C3=C4C5CC(C)(C)CC[C@]5(C(=O)O)CC[C@@]4(C)[C@]4(C)CCC5C(C)(C)c6n[nH]c(N)c6C[C@]5(C)C4C3)cn2)CC1 (stereo partly drawn) [Example 56, (4aS,6aS,6bR,13aR)-12-Amino-2,2,6a,6b,9,9,13a-heptamethyl-15-(6-(4-methylpiperazin-1-yl)pyridin-3-yl)-2,3,4,4a,5,6,6a,6b,7,8,8a,9,11,13,13a,13b,14,15b-octadecahydro-1H-chryseno[1,2-f]indazole-4-a-carboxylic acid] | 1 µg/mL | 2 µg/mL | – | – |
| CC1(C)CC[C@]2(C(=O)O)CC[C@]3(C)C(=C(c4ccc(N5CCC(N)CC5)nc4)CC4[C@@]5(C)Cc6c(n[nH]c6N)C(C)(C)C5CC[C@]43C)C2C1 (stereo partly drawn) [Example 57, (4aS,6aS,6bR,13aR)-12-Amino-15-(6-(4-aminopiperidin-1-yl)pyridin-3-yl)-2,2,6a,6b,9,9,13a-heptamethyl-2,3,4,4a,5,6,6a,6b,7,8,8a,9,11,13,13a,13b,14,15b-octadecahydro-1H-chryseno[1,2-f]indazole-4-a-carboxylic acid] | >2 µg/mL | 1 µg/mL | – | – |
| CC1(C)CC[C@]2(C(=O)O)CC[C@]3(C)C(=C(c4ccc(N5CCC(N)C5)nc4)CC4[C@@]5(C)Cc6c(n[nH]c6N)C(C)(C)C5CC[C@]43C)C2C1 (stereo partly drawn) [Example 58, (4a-8,6a8,6bR,13aR)-12-Amino-15-(6-(3-aminopyrrolidin-1-yl)pyridin-3-yl)-2,2,6a,6b,9,9,13a-heptamethyl-2,3,4,4a,5,6,6a,6b,7,8,8a,9,11,13,13a,13b,14,15b-octadecahydro-1H-chryseno[1,2-f]indazole-4-a-carboxylic acid] | 1 µg/mL | 2 µg/mL | – | – |
| CC1(C)CC[C@]2(C(=O)O)CC[C@]3(C)C(=C(c4ccccc4CN4CCOCC4)CC4[C@@]5(C)Cc6c(n[nH]c6N)C(C)(C)[C@@H]5CC[C@]43C)[C@@H]2C1 (stereo partly drawn) [Example 59, (4aS,6aS,6bR,8aR,13aR,15bS)-12-Amino-2,2,6a,6b,9,9,13a-heptamethyl-15-(2-(morpholinomethyl)phenyl)-2,3,4,4a,5,6,6a,6b,7,8,8a,9,11,13,13a,13b,14,15b-octadecahydro-1H-chryseno[1,2-f]indazole-4-a-carboxylic acid] | 0.5 µg/mL | >1 µg/mL | – | – |
| CC1(C)CC[C@]2(C(=O)O)CC[C@]3(C)C(=CCC4[C@@]5(C)CC6=NCN=C6C(C)(C)C5CC[C@]43C)C2C1 (stereo partly drawn) [F] | – | – | 4 µg/mL (≈ 8.36 µM) | > 8 µg/mL |
| CC1(C)CC[C@]2(C(=O)O)CC[C@]3(C)C(=CCC4[C@@]5(C)Cc6c(n[nH]c6CO)C(C)(C)C5CC[C@]43C)C2C1 (stereo partly drawn) [G] | – | – | > 8 µg/mL | > 8 µg/mL |
| CC1(C)CC[C@]2(C(=O)O)CC[C@]3(C)C(=CCC4[C@@]5(C)Cc6c(n[nH]c6Br)C(C)(C)C5CC[C@]43C)C2C1 (stereo partly drawn) [H] | – | – | 8 µg/mL (≈ 14.3 µM) | > 8 µg/mL |
| CNc1[nH]nc2c1C[C@@]1(C)C(CC[C@]3(C)C1CC=C1C4CC(C)(C)CC[C@]4(C(=O)O)CC[C@]13C)C2(C)C (stereo partly drawn) [I] | – | – | > 16 µg/mL | 8 µg/mL (≈ 15.8 µM) |
